Patent publication US6146859A, “Facile synthesis of L-homophenylalanine by equilibrium shift enzymatic reaction using engineered tyrosine aminotransferase” (Academia Sinica, priority 1999, dated 2000)
Where “and” joins values, the source holds several entries; their conditions need not be identical. Equal entries are not always repeated.

Columns and labels:
[1] = test system: microbial aminotransferase; conditions: at more than 0.2M; cited from earlier work
[2] = molecular target: T1, genetically engineered tyrosine aminotransferase (Escherichia coli, UniProt P04693); experiment: Tyrosine aminotransferase-catalyzed amino transfer to 2-oxo-4-phenylbutyric acid with various amino acids as amino donors; type: biochemical, E. coli; parameters: initial rate: unit not given here; conditions: amino acid 0.20 mmol, 2-oxo-4-phenylbutyric acid 0.10 mmol, enzyme 1 unit, 5 mL Tris-HCl 20 mM pH 8.5, 37° C., 5 min; for initial rate: increase of homophenylalanine by HPLC
T1 construct: made in house; host or cells: E. coli
T1 sequence (P04693 whole entry, change not shown): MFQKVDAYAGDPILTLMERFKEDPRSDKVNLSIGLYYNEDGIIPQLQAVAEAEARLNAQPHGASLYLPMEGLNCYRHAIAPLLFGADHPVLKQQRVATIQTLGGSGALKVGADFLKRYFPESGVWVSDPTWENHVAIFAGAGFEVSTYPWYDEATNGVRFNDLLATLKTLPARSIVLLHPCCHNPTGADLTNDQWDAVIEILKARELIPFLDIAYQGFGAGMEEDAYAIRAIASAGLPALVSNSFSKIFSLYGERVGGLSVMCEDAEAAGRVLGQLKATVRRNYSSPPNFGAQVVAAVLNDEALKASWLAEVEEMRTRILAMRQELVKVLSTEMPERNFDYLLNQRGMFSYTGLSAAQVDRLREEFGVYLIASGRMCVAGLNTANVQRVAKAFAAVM
Excerpt: Production of tyrosine aminotransferase: Genetically engineered tyrosine aminotransferase is preferably produced by overexpressing the gene product in E. coli according to the method described by Kuramitsu et al. in Biochem, Biophys. Res. Commu., 1989, 133:134, the contents of which are herein incorporated by references in their entirety. One unit of enzyme activity was defined as the activity that produces 1 μmol of product per minute.
The enzymatic activities of the genetically engineered tyrosine aminotransferase as described above were tested using various amino acids as amino donors and the results are shown in Table I. Each enzyme-catalyzed reaction was carried out in a mixture (5 mL) of Tris-HCl buffer (20 mM, pH 8.5) containing the tested amino acid (0.20 mmol) and 2-oxo-4-phenylbutyric acid (0.10 mmol) and the enzyme (1 unit) at 37° C. for 5 min. The initial rate was measured by calculating the increase of homophenylalanine concentration in each reaction based on HPLC analysis.

[3] = molecular target: T2, tyrosine aminotransferase (Escherichia coli, UniProt P04693); experiment: Equilibrium constants of the tyrosine aminotransferase-catalyzed reaction with 2-oxo-4-phenylbutyric acid and various amino acids; type: biochemical, E. coli; conditions: 2-oxo-4-phenylbutyric acid and the amino acid as substrates
T2 construct: made in house; host or cells: E. coli
T2 sequence (P04693 whole entry): as the sequence (P04693 whole entry, change not shown) above
Description: (§1) The HPLC chromatography is preferably conducted under the following conditions: column, 5C18; flow rate, 1 ml/min; gradient elution from an initial solution of 10% of eluent B+90% of eluent A to a final solution of 100% of eluent B in 20 minutes, wherein eluent A contains 5% ACN in 0.1% TFA and eluent B contains 95% ACN in 0.1% TFA; detector UV 214 nm. Initially, only peaks representing the starting materials L-glutamic acid having a retention time of 2.70 min and compound 1 having a retention time of 7.49 min appear in the HPLC graph as shown in the lower panel of FIG. 3. After adding the tyrosine aminotransferase, the areas of peaks corresponding to compound 1 and glutamic acid are decreased gradually, whereas areas of peaks corresponding to compound 2 having a retention time of 5.24 min and α-ketoglutamic acid having a retention time of 3.49 min are increased, as shown in the upper panel of FIG. 3. When the area of the peak representing compound 1 is reduced to one-fifth of the initial peak area, white precipitates appear in the reaction solution, while the peak area of compound 2 becomes stable and stays constant until the peak areas of compound 1 and glutamic acid are reduced to about baseline.

[4] = type: physicochemical; conditions: pH 8.5
Description: Synthesis of L-homophenylalanine: The synthesis is conducted preferably in a reaction mixture (5 ml) containing Tris-HCl buffer (50 mM, pH 8.5), compound 1 (10 mmole, the final concentration of compound 1 is about 2 M), L-Glu (10 mM), pyridoxal 5-phosphate (20 mM) at 37° C. The reaction is initiated by adding the tyrosine aminotransferase (5 units) to the reaction solution and monitored by HPLC.
as §1, with “When the area of the peak representing compound 1 is reduced to one-fifth of the initial peak area, white precipitates appear in the reaction solution, while the peak area of compound 2 becomes stable and stays constant until the peak areas of compound 1 and glutamic acid are reduced to about baseline.” left out

Row | solubility in the reaction solution [4] | Structure (SMILES) | inhibition of aminotransferase activity and conversion yield [1] | turnover rate [2] | initial rate [2] | Equilibrium Constant (Keq) [3]
1 | – | O=C(O)C(=O)CCc1ccccc1 [2-oxo-4-phenylbutyric acid] | markedly inhibited | – | – | –
2 | – | C[C@H](N)C(=O)O [L-Ala, alanine] | – | 0.042 mM/min.unit | 0.23 | –
3 | – | N[C@@H](CC(=O)O)C(=O)O [L-Asp, aspartic acid] | – | 0.372 mM/min.unit | 2.04 | 0.187
4 | – | N[C@@H](CCC(=O)O)C(=O)O [L-Glu, glutamic acid] | – | 0.539 mM/min.unit and 0.54 mM/min.unit | 2.96 | 0.345
5 | – | NCC(=O)O [L-Gly, glycine] | – | 0.027 mM/min.unit | 0.15 | –
6 | – | N[C@@H](Cc1c[nH]cn1)C(=O)O [L-His, histidine] | – | 0.089 mM/min.unit | 0.49 | –
7 | – | CC[C@H](C)[C@H](N)C(=O)O [L-Ile, isoleucine] | – | 0.005 mM/min.unit | 0.03 | –
8 | – | CC(C)C[C@H](N)C(=O)O [L-Leu, leucine] | – | 0.106 mM/min.unit | 0.58 | –
9 | – | NCCCC[C@H](N)C(=O)O [L-Lys, lysine] | – | 0.046 mM/min.unit | 0.25 | –
10 | – | CSCC[C@H](N)C(=O)O [L-Met, methionine] | – | 0.268 mM/min.unit | 1.47 | –
11 | – | N[C@@H](Cc1ccccc1)C(=O)O [L-Phe, phenylalanine] | – | 0.605 mM/min.unit and 0.61 mM/min.unit | 3.32 | 0.466
12 | – | N[C@@H](CO)C(=O)O [L-Ser, serine] | – | 0.002 mM/min.unit | 0.01 | –
13 | – | C[C@@H](O)[C@H](N)C(=O)O [L-Thr, threonine] | – | 0.009 mM/min.unit | 0.05 | –
14 | – | N[C@@H](Cc1ccc(O)cc1)C(=O)O [L-Tyr, tyrosine] | – | 0.619 mM/min.unit and 0.62 mM/min.unit | 3.43 | 0.727
15 | – | CC(C)[C@H](N)C(=O)O [L-Val, valine] | – | 0.058 mM/min.unit | 0.32 | –
16 | practically insoluble | N[C@@H](CCc1ccccc1)C(=O)O [compound 2, L-homophenylalanine] | – | – | – | –
